Experimental data taken from US11000033B2, “Ketone or oxime compound, and herbicide” (NISSAN CHEMICAL CORPORATION, priority 2014, dated 2021).

Legend:
Type in all cases: in vivo
[1] = test system: Echinochloa oryzacola Vasing.; assay: Test Example 2: herbicidal activity, application during weed generation in submerged conditions (symbol A); settings: Table 23; application herbicide amount 320 g/ha; grade 0-5 by criteria of Test Example 1
How it was run: (§1)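 Treatment timing was the one- to two-leaf stage, with diluted emulsifiable compound dropped onto the paddy water (depth 4 cm) over alluvial soil. All three species grew from a mixed sowing in a 25° C. to 30° C. greenhouse. Injury was judged by eye 3 weeks on.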

Monochoria vaginalis = assay: Test Example 2: herbicidal activity, application during weed generation in submerged conditions (symbol C); settings: Table 23; application herbicide amount 320 g/ha; grade 0-5 by criteria of Test Example 1
How it was run: as §1

[2] = test system: Echinochloa crus-galli var. crus-galli; assay: Test Example 3: herbicidal effect by foliage application, Wagner pot (symbol H); settings: application herbicide amount 320 g/ha
How it was run: (§2)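 The compound, formulated as an emulsion and diluted with water to a predetermined rate, is applied uniformly to leaves of two-week-old seedlings growing in submerged alluvial soil at 25–30 °C. Rice is included. Each plant is assessed 3 weeks later using defined criteria.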

Leptochloa chinensis = assay: Test Example 3: herbicidal effect by foliage application, Wagner pot (symbol D); settings: application herbicide amount 320 g/ha
How it was run: as §2

Cyperus difformis = assay: Test Example 3: herbicidal effect by foliage application, Wagner pot (symbol E); settings: application herbicide amount 320 g/ha
How it was run: as §2

Digitaria ciliaris = assay: Test Example 4: herbicidal effect by soil treatment (symbol F); settings: application herbicide amount 320 g/ha
How it was run: (§3)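 Seeds were sown in sterilized diluvial soil, covered with about 1.5 cm of soil, and the soil surface was sprayed with a water-diluted emulsion of the compound at a predetermined rate. Plants grew in a greenhouse at 25° C. to 30° C.; effects were scored visually 3 weeks after application.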

Setaria viridis = assay: Test Example 4: herbicidal effect by soil treatment (symbol G); settings: application herbicide amount 320 g/ha
How it was run: as §3

Alopecurus myosuroides = assay: Test Example 4: herbicidal effect by soil treatment (symbol J); settings: application herbicide amount 320 g/ha
How it was run: as §3

Abutilon theophrasti = assay: Test Example 4: herbicidal effect by soil treatment (symbol M); settings: application herbicide amount 320 g/ha
How it was run: as §3

Stellaria media [3] = assay: Test Example 4: herbicidal effect by soil treatment (symbol P); settings: application herbicide amount 320 g/ha
How it was run: as §3

corn = assay: Test Example 4: effect on crop by soil treatment (symbol c); settings: application herbicide amount 320 g/ha
How it was run: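 Sterilized diluvial soil, spot sowing, ~1.5 cm soil cover; greenhouse 25–30° C.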

wheat = assay: Test Example 5: effect on crop by foliage application, plastic box (symbol e); settings: 320 g/ha, 3 weeks after application
How it was run: (§4)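 Plants were raised from seed in a greenhouse (25° C. to 30° C.) after sowing in a plastic box of sterilized diluvial soil.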

rapeseed = assay: Test Example 5: effect on crop by foliage application, plastic box (symbol g); settings: 320 g/ha, 3 weeks after application
How it was run: as §4

Stellaria media [4] = assay: Test Example 5: herbicidal effect by foliage application, plastic box (symbol P); settings: 320 g/ha, 3 weeks after application
How it was run: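 Post-emergence spray; diluvial soil (sterilized), ~1.5 cm seed cover; greenhouse 25–30° C; 14-day-old plants; water-diluted emulsion at predetermined dose; visual score at 3 wk post-treatment.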

Row | Compound | Herbicidal effect grade, A: Echinochloa oryzacola Vasing. [1] | Herbicidal effect grade, C: Monochoria vaginalis (Monochoria vaginalis) | herbicidal effect on H (Echinochloa crus-galli var. crus-galli), grade 0-5 [2] | herbicidal effect on D (Leptochloa chinensis), grade 0-5 (Leptochloa chinensis) | herbicidal effect on E, grade 0-5 (Cyperus difformis) | F (Digitaria ciliaris) herbicidal effect grade (Digitaria ciliaris) | G (Setaria viridis) herbicidal effect grade (Setaria viridis) | J (Alopecurus myosuroides) herbicidal effect grade (Alopecurus myosuroides) | M (Abutilon theophrasti) herbicidal effect grade (Abutilon theophrasti) | P (Stellaria media) herbicidal effect grade (Stellaria media [3]) | c (corn) effect on crop grade (corn) | e: wheat, effect on crop grade (wheat) | g: rapeseed, effect on crop grade (rapeseed) | P: Stellaria media, herbicidal effect grade (Stellaria media [4]) | Herbicidal effect grade, F: Digitaria ciliaris (Digitaria ciliaris) | Herbicidal effect grade, G: Setaria viridis (Setaria viridis) | Herbicidal effect grade, J: Alopecurus myosuroides (Alopecurus myosuroides) | Herbicidal effect grade, M: Abutilon theophrasti (Abutilon theophrasti) | Herbicidal effect grade, P: Stellaria media (Stellaria media [3]) | Effect on crop grade, c: corn (corn) | further results
1 | CC(CC1CC(O)=C(c2c(C)cc(C)cc2C)C1=O)=NOCc1ccccc1 (stereo not drawn) [1-020] | 5 (Herbicidal ratio of 90% or more (almost completely withered)) | 2 (Herbicidal ratio of 20% or higher and lower than 40%) | 5 (Herbicidal ratio of 90% or more (almost completely withered)) | 5 (Herbicidal ratio of 90% or more (almost completely withered)) | 2 (Herbicidal ratio of 20% or higher and lower than 40%) | 5 (Herbicidal ratio of 90% or more (almost completely withered)) | 5 (Herbicidal ratio of 90% or more (almost completely withered)) | 5 (Herbicidal ratio of 90% or more (almost completely withered)) | 3 (Herbicidal ratio of 40% or higher and lower than 70%) | 0 (Herbicidal ratio of 5% or lower (almost no effect)) | 1 (Herbicidal ratio of 5% or higher and lower than 20%) | 5 (Herbicidal ratio of 90% or more (almost completely withered)) | 4 (Herbicidal ratio of 70% or higher and lower than 90%) | – | – | – | – | – | – | – | –
2 | CON=C(C)C(C(C)=NOC)C1CC(O)=C(c2c(C)cc(C)cc2C)C1=O (stereo not drawn) [1-021] | 0 (Herbicidal ratio of 5% or lower (almost no effect)) | 0 (Herbicidal ratio of 5% or lower (almost no effect)) | 2 (Herbicidal ratio of 20% or higher and lower than 40%) | 0 (Herbicidal ratio of 5% or lower (almost no effect)) | 0 (Herbicidal ratio of 5% or lower (almost no effect)) | 0 (Herbicidal ratio of 5% or lower (almost no effect)) | 0 (Herbicidal ratio of 5% or lower (almost no effect)) | 0 (Herbicidal ratio of 5% or lower (almost no effect)) | 0 (Herbicidal ratio of 5% or lower (almost no effect)) | 0 (Herbicidal ratio of 5% or lower (almost no effect)) | 0 (Herbicidal ratio of 5% or lower (almost no effect)) | 0 (Herbicidal ratio of 5% or lower (almost no effect)) | 2 (Herbicidal ratio of 20% or higher and lower than 40%) | – | – | – | – | – | – | – | –
3 | CC(CC1CC(O)=C(c2c(C)cc(C)cc2C)C1=O)=NOCc1ccccn1 (stereo not drawn) [1-022] | 4 (Herbicidal ratio of 70% or higher and lower than 90%) | 3 (Herbicidal ratio of 40% or higher and lower than 70%) | 5 (Herbicidal ratio of 90% or more (almost completely withered)) | 5 (Herbicidal ratio of 90% or more (almost completely withered)) | 4 (Herbicidal ratio of 70% or higher and lower than 90%) | 5 (Herbicidal ratio of 90% or more (almost completely withered)) | 3 (Herbicidal ratio of 40% or higher and lower than 70%) | 5 (Herbicidal ratio of 90% or more (almost completely withered)) | 0 (Herbicidal ratio of 5% or lower (almost no effect)) | – | 0 (Herbicidal ratio of 5% or lower (almost no effect)) | 5 (Herbicidal ratio of 90% or more (almost completely withered)) | 4 (Herbicidal ratio of 70% or higher and lower than 90%) | 3 (Herbicidal ratio of 40% or higher and lower than 70%) | – | – | – | – | – | – | –
4 | COC(=O)CON=C(C)CC1CC(O)=C(c2c(C)cc(C)cc2C)C1=O (stereo not drawn) [1-023] | 4 (Herbicidal ratio of 70% or higher and lower than 90%) | 0 (Herbicidal ratio of 5% or lower (almost no effect)) | 5 (Herbicidal ratio of 90% or more (almost completely withered)) | 5 (Herbicidal ratio of 90% or more (almost completely withered)) | 0 (Herbicidal ratio of 5% or lower (almost no effect)) | 4 (Herbicidal ratio of 70% or higher and lower than 90%) | 3 (Herbicidal ratio of 40% or higher and lower than 70%) | 0 (Herbicidal ratio of 5% or lower (almost no effect)) | 0 (Herbicidal ratio of 5% or lower (almost no effect)) | 0 (Herbicidal ratio of 5% or lower (almost no effect)) | 0 (Herbicidal ratio of 5% or lower (almost no effect)) | 0 (Herbicidal ratio of 5% or lower (almost no effect)) | 2 (Herbicidal ratio of 20% or higher and lower than 40%) | 0 (Herbicidal ratio of 5% or lower (almost no effect)) | – | – | – | – | – | – | –
5 | CC(=O)CC1CC(O)=C(c2c(C)cc(Br)cc2C)C1=O (stereo not drawn) [7-002] | 0 (Herbicidal ratio of 5% or lower (almost no effect)) | 0 (Herbicidal ratio of 5% or lower (almost no effect)) | 5 (Herbicidal ratio of 90% or more (almost completely withered)) | 5 (Herbicidal ratio of 90% or more (almost completely withered)) | 3 (Herbicidal ratio of 40% or higher and lower than 70%) | – | – | – | – | – | – | – | – | – | 5 (Herbicidal ratio of 90% or more (almost completely withered)) | 4 (Herbicidal ratio of 70% or higher and lower than 90%) | 3 (Herbicidal ratio of 40% or higher and lower than 70%) | 0 (Herbicidal ratio of 5% or lower (almost no effect)) | 0 (Herbicidal ratio of 5% or lower (almost no effect)) | 0 (Herbicidal ratio of 5% or lower (almost no effect)) | P: Stellaria media, herbicidal effect (criteria of Test Example 1) (Stellaria media [4]): 0 (Herbicidal ratio of 5% or lower (almost no effect)); e: wheat, effect on crop (criteria of Test Example 1) (wheat): 0 (Herbicidal ratio of 5% or lower (almost no effect)); g: rapeseed, effect on crop (criteria of Test Example 1) (rapeseed): 0 (Herbicidal ratio of 5% or lower (almost no effect))
6 | CON=C(C)C(=O)C1CC(O)=C(c2c(C)cc(C)cc2C)C1=O (stereo not drawn) [8-002] | 0 (Herbicidal ratio of 5% or lower (almost no effect)) | 0 (Herbicidal ratio of 5% or lower (almost no effect)) | – | – | – | – | – | – | – | – | – | 0 (Herbicidal ratio of 5% or lower (almost no effect)) | 1 (Herbicidal ratio of 5% or higher and lower than 20%) | 0 (Herbicidal ratio of 5% or lower (almost no effect)) | 3 (Herbicidal ratio of 40% or higher and lower than 70%) | 0 (Herbicidal ratio of 5% or lower (almost no effect)) | 0 (Herbicidal ratio of 5% or lower (almost no effect)) | 0 (Herbicidal ratio of 5% or lower (almost no effect)) | 0 (Herbicidal ratio of 5% or lower (almost no effect)) | 0 (Herbicidal ratio of 5% or lower (almost no effect)) | H (Echinochloa crus-galli var. crus-galli) herbicidal effect grade ([2]; Table 24): 0 (Herbicidal ratio of 5% or lower (almost no effect)); D (Leptochloa chinensis) herbicidal effect grade (Leptochloa chinensis; Table 24): 0 (Herbicidal ratio of 5% or lower (almost no effect)); E herbicidal effect grade (Cyperus difformis; Table 24): 0 (Herbicidal ratio of 5% or lower (almost no effect))
